23 compounds from patent US12157730B2, “Heteroaryl derivative, method for producing same, and pharmaceutical composition comprising same as effective component” (VORONOI INC., priority 2019, dated 2024) can be followed below.

This experiment addresses T1, Ba/F3 cell EGFR Exon20 ins NPH (Homo sapiens, UniProt P00533, INS773NPH).
T1 construct: expressed in transfected cells; host or cells: Ba/F3
Briefly: Ba/F3 cell proliferation suppression, EGFR Exon20 ins NPH. Type of experiment: cell-based. The settings on record: GI50 class; Ba/F3 cell line with NPH inserted at Exon20 of EGFR; 72 hours. The essentials: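 Cells were seeded 24 h before dosing and then treated for 72 hours with compound at final concentrations of 0.3 nM to 50 um. Live cells were measured by CellTiter-Glo luminescence, and GI50 values were derived from growth ratio relative to control across three repeats.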

Regarding `C=CC(=O)Nc1cc(Nc2cc(N3OCC[C@@H]3c3cccc(C#N)c3)ncn2)c(OC)cc1N1CCN(CC)CC1` [compound 396, N-(5-((6-((R)-3-(3-cyanophenyl)isoxazolidine-2-yl)pyrimidine-4-yl)amino)-2-(4-ethylpiperazine-1-yl)-4-methoxyphenyl) acrylamide], the “Ba/F3 (NPH) Activity” value is recorded as “B (50 nM ≤ GI50 < 500 nM)”.
For `C=CC(=O)Nc1cc(Nc2cc(N3OCC[C@@H]3c3c(F)ccc(F)c3F)ncn2)c(OC)cc1N1CCC(N2CCN(C3CC3)[C@@H](C)C2)CC1` [Example 167, N-(2-(4-((S)-4-cyclopropyl-3-methylpiperazine-1-yl)piperidine-1-yl)-4-methoxy-5-((6-((R)-3-(2,3,6-trifluorophenyl)isoxazolidine-2-yl)pyrimidine-4-yl)amino)phenyl)acrylamide], the “Ba/F3 (NPH) Activity” value is listed as “A (GI50 < 50 nM)”.
With `C=CC(=O)Nc1cc(Nc2cc(N3OCC[C@@H]3Cc3cc(F)cc(F)c3)ncn2)c(OC)cc1N1CCC(N2C[C@@H]3C[C@H]2CO3)CC1` [compound 1035, N-(2-(4-((1S,4S)-2-oxa-5-azabicyclo [2.2.1]heptane-5-yl)piperidine-1-yl)-5-((6-((S)-3-(3,5-difluorobenzyl)isoxazolidine-2-yl)pyrimidine-4-yl)amino)-4-methoxyphenyl) acrylamide], the “Ba/F3 (NPH) Activity” value was “A (GI50 < 50 nM)”.
As to `C=CC(=O)Nc1cc(Nc2cc(N3OCC[C@@H]3c3ccc(Cl)c(F)c3)ncn2)c(OC)cc1N1CCC(N2C[C@@H]3C[C@H]2CO3)CC1` [compound 802, N-(2-(4-((1S,4S)-2-oxa-5-azabicyclo [2.2.1]heptane-5-yl)piperidine-1-yl)-5-((6-((R)-3-(4-chloro-3-fluorophenyl)isoxazolidine-2-yl)pyrimidine-4-yl)amino)-4-methoxyphenyl) acrylamide], the “Ba/F3 (NPH) Activity” value was “A (GI50 < 50 nM)”.
`C=CC(=O)Nc1cc(Nc2cc(N3OCC[C@@H]3c3ccc(Cl)c(Cl)c3)ncn2)c(OC)cc1N(C)CCOC` [compound 679, N-(5-((6-((R)-3-(3,4-dichlorophenyl)isoxazolidine-2-yl)pyrimidine-4-yl)amino)-4-methoxy-2-((2-methoxyethyl)(methyl)amino)phenyl) acrylamide]: the “Ba/F3 (NPH) Activity” value was “B (50 nM ≤ GI50 < 500 nM)”.
Consider `C=CC(=O)Nc1cc(Nc2cc(N3OCC[C@@H]3c3cc(F)cc(F)c3)ncn2)c(OC)cc1N1CCN(C2CC2)CC1` [compound 438, N-(2-(4-cyclopropylpiperazine-1-yl)-5-((6-((R)-3-(3,5-difluorophenyl)isoxazolidine-2-yl)pyrimidine-4-yl)amino)-4-methoxyphenyl) acrylamide], for which the “Ba/F3 (NPH) Activity” value is “A (GI50 < 50 nM)”.
In the case of `C=CC(=O)Nc1cc(Nc2cc(N3OCC[C@@H]3c3ccc(F)c(Cl)c3F)ncn2)c(OC)cc1N1CCO[C@@H](C)C1` [compound 657, N-(5-((6-((R)-3-(3-chloro-2,4-difluorophenyl)isoxazolidine-2-yl)pyrimidine-4-yl)amino)-4-methoxy-2-((S)-2-methylmorpholino)phenyl)acrylamide], the “Ba/F3 (NPH) Activity” value is “A (GI50 < 50 nM)”.
Next, “N-(5-((6-((R)-3-(3,4- difluorophenyl) isoxazolidine-2-yl) pyrimidine-4-yl)amino)- 2-(4-((S)-3- (dimethylamino) pyrolidine-1-yl) piperidine-1-yl)-4- methoxyphenyl) acrylamide [compound 500]”: “A (GI50 < 50 nM)”.
For the compound `C=CC(=O)Nc1cc(Nc2cc(N3OCC[C@@H]3c3cccc(Cl)c3Cl)ncn2)c(OC)cc1N1CCN(C2CCCC2)CC1` [compound 563, N-(2-(4-cyclopentylpiperazine-1-yl)-5-((6-((R)-3-(2,3-dichlorophenyl)isoxazolidine-2-yl)pyrimidine-4-yl)amino)-4-methoxyphenyl) acrylamide], the “Ba/F3 (NPH) Activity” value is “A (GI50 < 50 nM)”.
As for `C=CC(=O)Nc1cc(Nc2cc(N3OCC[C@@H]3c3cccc(F)c3)ncn2)c(OC)cc1N1CC[C@@H](N(C)C)C1` [Example 247, N-(2-((R)-3-(dimethylamino)pyrolidine-1-yl)-5-((6-((R)-3-(3-fluorophenyl)isoxazolidine-2-yl)pyrimidine-4-yl)amino)-4-methoxyphenyl) acrylamide], the “Ba/F3 (NPH) Activity” value is recorded as “A (GI50 < 50 nM)”.
Next, `C=CC(=O)Nc1cc(Nc2cc(N3OCC[C@@H]3Cc3ccccc3)ncn2)c(OC)cc1N1CCN(CC)CC1` [compound 946, N-(5-((6-((S)-3-benzylisoxazolidine-2-yl)pyrimidine-4-yl)amino)-2-(4-ethylpiperazine-1-yl)-4-methoxyphenyl) acrylamide]: “A (GI50 < 50 nM)”.
Turning to `C=CC(=O)Nc1cc(Nc2cc(N3OCC[C@@H]3c3ccc(F)cc3F)ncn2)c(OC)cc1N1CCC(N(C)CCOC)CC1` [compound 387, N-(5-((6-((R)-3-(2,4-difluorophenyl)isoxazolidine-2-yl)pyrimidine-4-yl)amino)-4-methoxy-2-(4-((2-methoxyethyl)(methyl)amino)piperidine-1-yl)phenyl)acrylamide], the “Ba/F3 (NPH) Activity” value was “A (GI50 < 50 nM)”.
Consider `C=CC(=O)Nc1cc(Nc2cc(N3OCC[C@@H]3c3ccccc3)ncn2)c(OC)cc1N1CCN(CC2CC2)CC1` [Example 277, N-(2-(4-(cyclopropylmethyl)piperazine-1-yl)-4-methoxy-5-((6-((R)-3-phenylisoxazolidine-2-yl)pyrimidine-4-yl)amino)phenyl) acrylamide], for which the “Ba/F3 (NPH) Activity” value is recorded as “A (GI50 < 50 nM)”.
As to `C=CC(=O)Nc1cc(Nc2cc(N3OCC[C@@H]3c3ccc(C)nc3)ncn2)c(OC)cc1N1CCC(N2CCN(CC)CC2)CC1` [Example 41, N-(2-(4-(4-ethylpiperazine-1-yl)piperidine-1-yl)-4-methoxy-5-((6((R)-3-(6-methylpyridine-3-yl)isoxazolidine-2-yl)pyrimidine-4-yl)amino)phenyl) acrylamide], the “Ba/F3 (NPH) Activity” value is on record as “B (50 nM ≤ GI50 < 500 nM)”.
`C=CC(=O)Nc1cc(Nc2cc(N3OCC[C@@H]3c3cccc(F)c3F)ncn2)c(OC)cc1N1CCC(N2CCN(C3CC3)CC2)CC1` [Example 127, N-(2-(4-(4-cyclopropylpiperazine-1-yl)piperidine-1-yl)-5-((6-((R)-3-(2,3-difluorophenyl)isoxazolidine-2-yl)pyrimidine-4-yl)amino)-4-methoxyphenyl) acrylamide]: the “Ba/F3 (NPH) Activity” value was “A (GI50 < 50 nM)”.
Regarding `C=CC(=O)Nc1cc(Nc2cc(N3OCC[C@@H]3c3cccc(F)c3F)ncn2)c(OC)cc1N1CCN(C)C[C@H]1C` [compound 885, N-(5-((6-((R)-3-(2,3-difluorophenyl)isoxazolidine-2-yl)pyrimidine-4-yl)amino)-2-((R)-2,4-dimethylpiperazine-1-yl)-4-methoxyphenyl) acrylamide], the “Ba/F3 (NPH) Activity” value was “A (GI50 < 50 nM)”.
Regarding `C#Cc1cccc([C@H]2CCON2c2cc(Nc3cc(NC(=O)C=C)c(N4CCN(C)CC4)cc3OC)ncn2)c1` [compound 617, N-(5-((6-((R)-3-(3-ethynylphenyl)isoxazolidine-2-yl)pyrimidine-4-yl)amino)-4-methoxy-2-(4-methylpiperazine-1-yl)phenyl)acrylamide], the “Ba/F3 (NPH) Activity” value is recorded as “A (GI50 < 50 nM)”.
As to `C=CC(=O)Nc1cc(Nc2cc(N3OCC[C@@H]3c3cccc(F)c3F)ncn2)c(OC)cc1N1CCC(N2CCN(C(C)=O)CC2)CC1` [compound 339, N-(2-(4-(4-acetylpiperazine-1-yl)piperidine-1-yl)-5-((6-((R)-3-(2,3-difluorophenyl)isoxazolidine-2-yl)pyrimidine-4-yl)amino)-4-methoxyphenyl) acrylamide], the “Ba/F3 (NPH) Activity” value is listed as “A (GI50 < 50 nM)”.
With `C=CC(=O)Nc1cc(Nc2cc(N3OCC[C@@H]3c3ccc(C)nc3)ncn2)c(OC)cc1N1CCC(N2C[C@@H]3C[C@H]2CO3)CC1` [Example 228, N-(2-(4-((1S,4S)-2-oxa-5-azabicyclo[2.2.1]heptane-5-yl)piperidine-1-yl)-4-methoxy-5-((6-((R)-3-(6-methylpyridine-3-yl)isoxazolidine-2-yl)pyrimidine-4-yl)amino)phenyl)acrylamide], the “Ba/F3 (NPH) Activity” value is listed as “A (GI50 < 50 nM)”.
As to `C=CC(=O)Nc1cc(Nc2cc(N3OCC[C@@H]3c3ccc(F)cc3)ncn2)c(OC)cc1N1CCC(N2CCN(C(C)=O)CC2)CC1` [compound 809, N-(2-(4-(4-acetylpiperazine-1-yl)piperidine-1-yl)-5-((6-((R)-3-(4-fluorophenyl)isoxazolidine-2-yl)pyrimidine-4-yl)amino)-4-methoxyphenyl) acrylamide], the “Ba/F3 (NPH) Activity” value is “A (GI50 < 50 nM)”.
Consider `C=CC(=O)Nc1cc(Nc2cc(N3OCC[C@@H]3c3cccc(C#N)c3)ncn2)c(OC)cc1N1C[C@@H]2CCN(C)[C@@H]2C1` [compound 332, N-(5-((6-((R)-3-(3-cyanophenyl)isoxazolidine-2-yl)pyrimidine-4-yl)amino)-4-methoxy-2-((3aS,6aS)-1-methylhexahydropyrrolo [3,4-b]pyrrole-5(1H)-yl)phenyl)acrylamide], for which the “Ba/F3 (NPH) Activity” value is “A (GI50 < 50 nM)”.
Take `C=CC(=O)Nc1cc(Nc2cc(N3OCC[C@@H]3c3ccc4ccccc4c3)ncn2)c(OC)cc1N1CC[C@@H](N(C)C)C1` [compound 513, N-(2-((R)-3-(dimethylamino)pyrolidine-1-yl)-4-methoxy-5-((6-((R)-3-(naphthalene-2-yl)isoxazolidine-2-yl)pyrimidine-4-yl)amino)phenyl)acrylamide]: the “Ba/F3 (NPH) Activity” value is “B (50 nM ≤ GI50 < 500 nM)”.
Next, `C=CC(=O)Nc1cc(Nc2cc(N3OCC[C@@H]3c3cc(F)cc(F)c3)ncn2)c(OC)cc1N1C[C@H]2CCN(C)[C@H]2C1` [compound 890, N-(5-((6-((R)-3-(3,5-difluorophenyl)isoxazolidine-2-yl)pyrimidine-4-yl)amino)-4-methoxy-2-((3aR,6aR)-1-methylhexahydropyrrolo [3,4-b]pyrrole-5(1H)-yl)phenyl) acrylamide]: “A (GI50 < 50 nM)”.
